# Results published in PMC7994753, “The Availability of the α7-Nicotinic Acetylcholine Receptor in Early Identification of Vulnerable Atherosclerotic Plaques: A Study Using a Novel ^18F-Label Radioligand PET” (Frontiers in Bioengineering and Biotechnology, 2021).
# Columns and labels:
# [1] = target: T1, α4β2nAChR (Mus musculus, UniProt O70174+Q9ERK7); experiment: Blocking experiment with cytisine pre-injection, brain uptake; assay type: in vivo; details: cytisine 1 mg/kg pre-injected 5 min before tracer; CD-1 mice brain, 60 min after injection
# T1 construct: from tissue; host or cells: brain of living CD-1 mice
# Protocol: (§1) To further determine the specific binding of [^18F]YLF-DW to α7nAChR over other similar receptors, blocking experiments were carried out by pre-subcutaneous injection of blocking agents. α4β2nAChR, a heteromeric nAChR subtype widely expressed and 5-HT3, a receptor sharing high sequence homology with α7nAChR, were the most likely receptors to cross binding with α7nAChR ligands. We used the brain tissues of CD-1 mice to do the blocking experiment. Cytisine (1 mg/kg, a selective partial agonist of α4β2nAChR) and ondansetron (2 mg/kg, a selective antagonist of 5-HT3) were pre-injected 5 and 10 min prior to the intravenous injection of [^18F]YLF-DW, respectively. The CD-1 mice were sacrificed at 60 min after the [^18F]YLF-DW injection, and the brain tissues were harvested.
# [2] = target: T2, 5-HT3 (Mus musculus, UniProt P23979); experiment: Blocking experiment with ondansetron pre-injection, brain uptake; assay type: in vivo; details: ondansetron 2 mg/kg pre-injected 10 min before tracer; CD-1 mice brain, 60 min after injection
# T2 construct: from tissue; host or cells: brain of living CD-1 mice
# T2 sequence (P23979 24-489): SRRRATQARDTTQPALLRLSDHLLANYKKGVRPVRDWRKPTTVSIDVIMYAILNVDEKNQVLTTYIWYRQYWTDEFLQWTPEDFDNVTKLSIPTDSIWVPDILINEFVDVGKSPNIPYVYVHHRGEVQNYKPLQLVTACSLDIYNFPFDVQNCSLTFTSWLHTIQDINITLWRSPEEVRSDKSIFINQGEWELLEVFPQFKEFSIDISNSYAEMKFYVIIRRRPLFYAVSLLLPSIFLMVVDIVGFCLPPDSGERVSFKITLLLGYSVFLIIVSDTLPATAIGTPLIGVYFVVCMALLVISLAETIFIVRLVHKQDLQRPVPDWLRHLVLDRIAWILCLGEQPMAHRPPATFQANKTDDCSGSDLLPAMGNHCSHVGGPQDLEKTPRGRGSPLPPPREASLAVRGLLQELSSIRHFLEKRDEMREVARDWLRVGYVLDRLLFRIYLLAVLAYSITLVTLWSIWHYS
# Protocol: as §1
# [3] = target: T3, α7nAChR in atherosclerotic plaques (Mus musculus, UniProt P49582); experiment: Micro-PET/CT imaging of carotid atherosclerotic plaques; assay type: in vivo, ApoE-/-mice and normal mice
# T3 construct: superimposed on the high uptake region in carotid arteries of ApoE-/-mice; from tissue; host or cells: carotid arteries / atherosclerotic plaques of living ApoE-/- mice and normal mice
# Source text: ApoE-/-mice (n = 6, weight 25–33 g) and normal mice (n = 6, weight 25–33g) were purchased from Qingzilan Technology Co., Ltd (Nanjing, China). After 1 week of feeding with common feed, the selected ApoE-/-mice were fed with western diet, containing 21% fat and 0.15% cholesterol content, with a high-fat/high-cholesterol content for 9–10 weeks and subjected to micro-PET/CT imaging. The tissues were used for red staining and immunohistochemistry experiments. The normal mice served as controls for micro-PET/CT imaging and their tissues for immunohistochemistry. All mice were kept in a temperature-controlled environment with a 12 h light/dark cycle with free access to food and water. Animal care and experimental procedures were conducted in compliance with the Helsinki Declaration and approved by Fuwai hospital animal care committee.
# When the animal models were 10 and 11 weeks old, the micro-PET/CT imaging were conducted. An Inveon small animal PET/CT scanner (Siemens,Germany) was used to perform the scans. A total volume of 5.56 MBq (150 μCi) of [^18F]YLF-DW was injected into six ApoE-/-mice and six normal mice by the tail veins, and the animal models were anesthetized with 2% isoflurane through inhalation. We performed PET/CT dynamic scanning. After screening, the acquisition was performed at 1 h after tail vein injections. The micro-PET/CT was initially performed with the following parameters: energy peak, 511 keV; window width, 3.5 E0 SUV-bw; resolution, 0.775 mm/pixel; and matrix, 128 × 128. Each mouse required a 15-min acquisition and the computed tomography (CT) was performed after PET scanning in the same bed position using the following parameters: frame resolution, 256 × 512; tube voltage, 80 kVp; current, 0.5 mA; and exposure time, 500 ms/frame.
# The images were reconstructed by two-dimensional-ordered subsets expectation maximization. The three-dimensional regions of interest (ROIs) were superimposed on the high uptake region in carotid arteries of ApoE-/-mice. The tissue density was presumed as 1 g/ml, and % ID/g was calculated based on the dose injected into the mice.
# [4] = target: α7nAChR; design: method as in Wang S. et al., 2018; details: previous experiment, ref Wang S. et al., 2018; cited from earlier work
# [5] = design: method as in Wang S. et al., 2018; details: ref Wang S. et al., 2018, cited from earlier work
# T3 sequence (P49582 23-502): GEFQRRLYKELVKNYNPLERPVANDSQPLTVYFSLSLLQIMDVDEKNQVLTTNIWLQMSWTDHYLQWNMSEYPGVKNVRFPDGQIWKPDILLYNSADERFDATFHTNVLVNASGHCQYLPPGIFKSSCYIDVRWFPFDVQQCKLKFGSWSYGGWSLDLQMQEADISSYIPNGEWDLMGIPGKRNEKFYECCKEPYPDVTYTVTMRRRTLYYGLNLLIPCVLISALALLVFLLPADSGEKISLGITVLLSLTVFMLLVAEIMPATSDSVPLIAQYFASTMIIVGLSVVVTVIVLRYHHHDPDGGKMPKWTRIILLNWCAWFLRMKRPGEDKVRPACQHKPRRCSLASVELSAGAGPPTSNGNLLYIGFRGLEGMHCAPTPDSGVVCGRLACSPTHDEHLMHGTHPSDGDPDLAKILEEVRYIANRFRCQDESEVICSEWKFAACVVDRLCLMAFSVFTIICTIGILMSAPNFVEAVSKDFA
# T1 sequence (O70174 31-629): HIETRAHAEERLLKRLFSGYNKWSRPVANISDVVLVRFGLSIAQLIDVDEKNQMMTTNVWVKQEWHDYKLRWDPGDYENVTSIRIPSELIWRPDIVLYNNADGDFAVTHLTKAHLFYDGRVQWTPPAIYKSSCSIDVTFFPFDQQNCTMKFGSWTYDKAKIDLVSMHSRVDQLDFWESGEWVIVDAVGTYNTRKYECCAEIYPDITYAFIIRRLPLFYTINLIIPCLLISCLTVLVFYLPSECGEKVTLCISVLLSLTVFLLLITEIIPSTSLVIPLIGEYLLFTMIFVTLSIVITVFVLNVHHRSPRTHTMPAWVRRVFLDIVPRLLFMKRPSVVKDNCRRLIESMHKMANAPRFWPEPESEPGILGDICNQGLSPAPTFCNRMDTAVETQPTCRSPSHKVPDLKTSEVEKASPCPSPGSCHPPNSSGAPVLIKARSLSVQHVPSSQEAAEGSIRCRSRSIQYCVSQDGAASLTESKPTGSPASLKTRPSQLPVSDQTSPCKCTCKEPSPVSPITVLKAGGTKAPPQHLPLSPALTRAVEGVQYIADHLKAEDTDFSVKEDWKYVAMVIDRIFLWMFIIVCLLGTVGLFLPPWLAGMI
# T1 sequence (Q9ERK7 26-501): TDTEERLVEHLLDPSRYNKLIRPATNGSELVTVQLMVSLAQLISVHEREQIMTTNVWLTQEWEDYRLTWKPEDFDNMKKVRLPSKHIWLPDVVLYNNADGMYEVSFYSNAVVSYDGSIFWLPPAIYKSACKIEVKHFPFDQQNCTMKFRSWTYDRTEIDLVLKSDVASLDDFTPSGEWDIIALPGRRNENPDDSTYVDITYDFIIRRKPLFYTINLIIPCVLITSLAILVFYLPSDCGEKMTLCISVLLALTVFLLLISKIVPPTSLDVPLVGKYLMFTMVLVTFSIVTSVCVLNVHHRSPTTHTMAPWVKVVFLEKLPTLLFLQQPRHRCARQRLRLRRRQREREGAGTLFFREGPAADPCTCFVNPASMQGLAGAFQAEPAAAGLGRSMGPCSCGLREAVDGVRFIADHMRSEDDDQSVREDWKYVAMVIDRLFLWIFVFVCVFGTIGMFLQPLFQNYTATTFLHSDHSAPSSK
structure (smiles),measurement,setting,value
O=C1c2cc(N3CCN4CCC3CC4)ccc2-c2cccc([18F])c21 [[^18F]YLF-DW],"difference in radioligand uptake, blocked group vs control group",[1],no significant difference
same,"difference in radioligand uptake, blocked group vs control group",[2],no significant difference
same,carotid artery plaque imaging signal,"[3]; ApoE-/-mouse, 5.56 MBq i.v., acquisition 1 h after injection",obvious in the carotid artery
same,early detection of carotid plaques compared with traditional imaging agent,"[3]; ApoE-/-mouse, comparison with [^18F]FDG",better than [^18F]FDG
same,carotid artery imaging signal,"[3]; normal control mice, 5.56 MBq i.v., acquisition 1 h after injection",no signal was observed
same,Ki,[4],2.98 ± 1.41 nM
same,initial brain uptake,"[5]; 15 min post-injection, Kunming mouse",11.60 ± 0.14 %ID/g
same,brain/blood value,"[5]; 30 min post-injection, Kunming mouse",9.57
same,clearance from brain,[5]; Kunming mouse brains,fast clearance
